Patent US7235534B2, “Antisense strategy to modulate estrogen receptor response (ER α and/or ER β )” (Institut de Cardiologie de Montreal, priority 2001, dated 2007)

How the values were obtained:
[1] = tested on: p38 MAPK; assay: Western blot of p38 MAPK phosphorylation in PAEC; format: cell-based, porcine; settings: for inhibition of p38 MAPK phosphorylation induced by a 30 minutes treatment with 17βE: antagonist 10^−7M 5 min prior to 17βE 10^−8M
Method: Confluent PAEC and PSMC were starved for 7 hours in DMEM and antibiotics. Culture medium was removed, and cells were rinsed twice with ice-cold DMEM. PSMC were incubated on ice in DMEM with or without 17βE (10^−8M) for 30 min, incubated at 37° C. for 5, 10, 15 and 30 min, then brought back on ice. Cell were then rinsed with cold DMEM, incubated on ice in DMEM, bovine serum albumin (1 mg/ml), PDGF-BB (10 ng/ml) for 30 min, incubated at 37° C. for 5 min, and then brought back on ice. PAEC were incubated on ice in DMEM with or without 17βE (10^−7M) for 30 min, then incubated at 37° C. for 5, 10, 15 and 30 min and brought back on ice. […] Total proteins were prepared by the addition of 500 μl of lysis buffer containing phenylmethylsulfonyl fluoride 1 mM, leupeptin 10 μg/ml, aprotinin 30 μg/ml, and NaVO3 1 mM (Sigma). Plates were incubated at 4° C. for 30 min and scraped, and the protein concentration was determined with a Bio-Rad protein kit (Bio-Rad, Hercules, Calif.). Same protein quantity for each cell type and condition were dissolved in Laemmli's buffer, boiled for 5 min in reducing conditions, separated by a 10% gradient SDS-PAGE (Protean II kit; Bio-Rad), and transblotted onto a 0.45-μm polyvinylidene difluoride membranes (Millipore Corp., Bedford, Mass.). The membranes were blocked in 5% Blotto-TTBS (5% nonfat dry milk; Bio-Rad), 0.05% Tween 20, 0.15 M NaCl, 25 mM Tris-HCl, pH 7.5) for 1 h at room temperature with gentle agitation and incubated overnight at 4° C. in 0.5% Blotto-TTBS with the addition of an anti-phospho p42/44 MAPK or an anti-phospho p38 MAPK rabbit polyclonal antiserums (α-pp42/44; dilution of 1:10 000, and α-pp38; dilution 1:5000, New England BioLabs, Beverly, Mass.). Membranes were washed with TTBS, and incubated at room temperature with an anti-rabbit IgG antibody coupled to horseradish peroxidase (dilution 1:10 000–1:20 000, Santa Cruz Biotechnology, Santa Cruz, Calif.) in 0.5% Blotto-TTBS for 30 min. […] Kaleidoscope molecular weight and SDS-plyacrylamide gel electrophoresis broad range marker proteins (Bio-Rad) were used as standards for SDS-plyacrylamide gel electrophoresis. Digital image densitometry (PDI Bioscience, Aurora, ON) was performed on x-ray film to determine relative percentages of p42/44 and p38 MAPK phosphorylation.
Confluent PAEC and PSMC were preteated with or without antisense sequences as described above for Western Blot analysis. Cells were rinsed twice with ice-cold DMEM. PSMC and PAEC were stimulated with or without 17βE (10^−8 mol/L) as previously described (Geraldes P). Briefly, PSMC were incubated on ice in DMEM with or without 17βE (10^−8 mol/L) for 30 minutes, incubated at 37° C. for 30 minutes, then brought back on ice. Cells were then rinsed with cold DMEM, incubated on ice in DMEM, bovine serum albumin (1 mg/mL), PDGF-BB (10 ng/mL) for 30 minutes, incubated at 37° C. for 5 and 30 minutes, and then brought back on ice. PAEC were incubated on ice in DMEM with or without 17βE (10^−8 mol/L) for 30 minutes, then incubated at 37° C. for 5 and 30 minutes and brought back on ice. Total proteins were prepared-by the addition of 500 μL of lysis buffer, incubated at 4° C. for 30 minutes and scraped to collect the proteins. Same quantity of protein was separated by a 10% gradient SDS-PAGE (Protean II kit; Bio-Rad), and transblotted onto a 0.45-μm polyvinylidene difluoride membranes (Millipore Corp.). […]

[2] = tested on: Porcine aortic endothelial cells (PAEC); assay: Chemotactic assay on PAEC (modified Boyden chamber); format: cell-based
Method: Cell migration was evaluated using a modified Boyden 48-well microchamber kit (NeuroProbe, Cabin John, MD.). Near confluent EC and PSMC were rinsed with DMEM and trypsinized. Cells were resuspended in DMEM, 5% FBS, and antibiotics, and a cell count was obtained. […] ER antagonists were added 5 minutes before 17βE. Cells were harvested by trypsinization and resuspended in DMEM, 1% FBS, and antibiotics at a concentration of 5×10^5 cells/ml. […] The two sections of the system were separated by a porous polycarbonate filter (5-μm pores), pre-treated with a gelatine solution (1.5 mg/ml), and assembled. Five hours post incubation at 37° C., the nonmigrated cells were scraped with a plastic policeman, and the migrated cells were stained using a Quick-Diff solution. The filter was then mounted on a glass slide, and migrated cells were counted using a microscope adapted to a video camera to obtain a computer-digitized image.
Cell migration was evaluated using a modified Boyden 48-well microchamber kit (NeuroProbe, Cabin John, MD.). Near confluent PAEC and PSMC were rinsed with DMEM and trypsinized. Cells were resuspended in DMEM, 5% FBS, and antibiotics, and a cell count was obtained. PAEC and PSMC were seeded at 2.5×10^5 cells/well of 6-well tissue culture plates; stimulated for 24 hours in DMEM, 5% FBS, and antibiotics with or without antisense oligomers (10^−6 mol/L) and starved for 48 hours in DMEM, 0.1% FBS, and antibiotics with or without antisense oligomers (10^−6 mol/L daily) with or without 17βE (10^−8 mol/L). Cells were harvested by trypsinization and resuspended in DMEM, 1% FBS, and antibiotics at a concentration of 5×10^5 cells/mL. Fifty μL of this cell suspension with or without antisense oligomers (10^−6 mol/L) treated with or without 17βE (10^−8 mol/L) was added in the higher-chamber of the modified Boyden chamber apparatus, and the lower chamber was filled with DMEM, 1% FBS, antibiotics plus the desired concentration of agonist either 17βE (10^−8 mol/L) or platelet-derived growth factor-BB (PDGF-BB). The 2 sections of the system were separated by a porous polycarbonate filter (5-μm pores size), pretreated with a gelatine solution (1.5 mg/mL), and assembled. Five hours postincubation at 37° C., the non-migrated cells were scraped with a plastic policeman, and the migrated cells were stained using a Quick-Diff solution (Shandon Inc). The filter was then mounted on a glass slide, and migrated cells were counted using a microscope adapted to a video camera to obtain a computer-digitized image.

[3] = local delivery upon porcine coronary angioplasty; cited from earlier work

CC/C(=C(\c1ccc(O)cc1)c1ccc(OCCN(C)C)cc1)c1ccccc1 [4-OHT, 4-OH-Tamoxifen]
inhibition of p38 MAPK phosphorylation induced by a 30 minutes treatment with 17βE [1]: 81%

C[C@]12CC[C@@H]3c4ccc(O)cc4CC[C@H]3[C@@H]1CC[C@@H]2O [17βE, 17-beta-estradiol]
stimulation of PAEC migration as compared to bFGF (10 ng/ml) alone ([2]; 17βE 10^−8M combined with bFGF): 121%
induction of PAEC migration as compared to DMEM 1% ([2]; 17βE 10^−8 mol/L, 5 hours): 4.63 fold
time of maximum stimulation of p38 MAPK phosphorylation ([1]; 17βE 10^−8M): 30 min
increase of p38 MAPK phosphorylation ([1]; 17βE 10^−8 mol/L, 30 minutes, Example 2): 254%
reduction of the degree of restenosis [3]: up to 50%

O=C(c1ccc(OCN2CCCCC2)cc1)c1c(-c2ccc(O)cc2)sc2cc(O)ccc12 [Ral, Raloxifen]
inhibition of p38 MAPK phosphorylation induced by a 30 minutes treatment with 17βE [1]: 98%

CC/C(=C(\c1ccccc1)c1ccc(OCCN(C)C)cc1)c1ccccc1 [Tam, Tamoxifen]
inhibition of p38 MAPK phosphorylation induced by a 30 minutes treatment with 17βE [1]: 84%
